Results published in patent US20240408169A1 (priority 2023, published 2024).
pIC50: −log10 of the molar value. *1 amine or outer side, *2 acyl side, *3 side chain or, on linkers, in order; H or OH if unused. Where a SMILES comes first, the peptide text is derived from it. Bridges are numbered along the chain shown (N, C = ends). [ ]: non-standard residue; d: D form. The star is where a group is joined. X100 = CC(=O)NC1CC=C(c2ccc(Cl)cc2C[C@@H](C(=O)[*:2])N(C)[*:1])CC1; X84 = CC(=O)N1CCC(c2ccc(Cl)cc2C[C@@H](C(=O)[*:2])N(C)[*:1])CC1; X26 = CN([C@@H](Cc1cc(F)ccc1-c1cnn(C2CC2)c1)C(=O)[*:2])[*:1]; NMehhhLys(Me) = CN([C@@H](CCCCCCCN(C)[*:3])C(=O)[*:2])[*:1]; X112 = CN([C@@H](Cc1cc(F)ccc1-c1cnn(C)c1)C(=O)[*:2])[*:1]; X22 = CN([C@@H](Cc1cc(Cl)ccc1-c1cnn(C)c1)C(=O)[*:2])[*:1]; X104 = CN([C@@H](Cc1cc(Cl)ccc1C1=CCOCC1)C(=O)[*:2])[*:1]; NMe(hhhLys) = CN([C@@H](CCCCCCCN[*:3])C(=O)[*:2])[*:1]; Cyclobutanecarbonyl(1-CF3) = O=C(C1(C(F)(F)F)CCC1)*; X88 = CC(C)c1ccc(Cl)cc1C[C@@H](C(=O)[*:2])N(C)[*:1]; cBuCO(3,3-F2-1-CF3) = O=C(C1(C(F)(F)F)CC(F)(F)C1)*; Pro(trans-4-F) = O=C(O)[C@@H]1C[C@@H](F)CN1; Gly(cPr) = N[C@H](C(=O)O)C1CC1

Tests used:
[1] = test system: WI-38 cells; experiment: MTT proliferation assay, WI-38; assay type: cell-based; settings: 3 days compound exposure, 1:3 serial dilution starting at 10 μM;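 note: Eight- or ten-point dilution series, with exposure length chosen to span about three to four cell doublings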
[2] = biological target: T1, CyclinE1/CDK2 (Homo sapiens, UniProt P24864); experiment: Fluorescence Polarization (FP) competitive binding assay, Cyclin E1/Cdk2; settings: 10 nM Cyclin E1/Cdk2, 2 nM FAM probe; average of 2-3 independent experiments; read-out: Cyclin E FP IC50;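 note: readings taken after two-hour equilibration at room temperature in HEPES buffer with NaCl, DTT, NP-40 and BSA, IC50 fitted from eight-concentration serial dilution series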
T1 construct: purchased Eurofins, discovery 14-475

[3] = biological target: T2, CyclinB1/CDK1 (Homo sapiens, UniProt P14635); experiment: Fluorescence Polarization (FP) competitive binding assay, Cyclin B1/Cdk1; settings: 10 nM Cyclin B1/Cdk1, 2 nM FAM probe; average of 2-3 independent experiments; read-out: Cyclin B FP IC50;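 note: fluorescence polarization read after equilibration at room temperature, with IC50 taken from serially diluted dose-response curves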
T2 construct: purchased Eurofins, discovery 14-450

[4] = test system: NCI-H1048 cells; experiment: MTT proliferation assay, NCI-H1048; assay type: cell-based; settings: 5 days compound exposure, 1:3 serial dilution starting at 10 μM;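 note: Dose-response in 96-well plates over 8 or 10 concentration points, with exposure spanning 3-4 cell doublings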
[5] = test system: OVCAR3 cells; experiment: MTT proliferation assay, OVCAR3; assay type: cell-based; settings: 5 days compound exposure, 1:3 serial dilution starting at 10 μM;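 note: compound given as an 8- or 10-point series, one day after plating, with exposure covering roughly 3-4 cell doublings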
[6] = biological target: T3, CyclinA2/CDK2 (Homo sapiens, UniProt P20248); experiment: Fluorescence Polarization (FP) competitive binding assay, Cyclin A2/Cdk2; settings: 8 nM Cyclin A2/Cdk2, 2 nM FAM probe; average of 2-3 independent experiments; read-out: Cyclin A FP IC50;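 note: plates equilibrated two hours at room temperature before polarization reading, IC50 fitted from eight-concentration compound titration curves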
T3 construct: purchased CRELUX Protein Services

| Structure (SMILES) | GI50 [1] | pIC50 [2] | pIC50 [3] | GI50 [4] | GI50 [5] | pIC50 [6] |
| --- | --- | --- | --- | --- | --- | --- |
| COCCn1cc(-c2ccc(Cl)cc2C[C@H]2C(=O)N(C)CCCCC=CC[C@H](N(C)C(=O)[C@@H](NC(=O)[C@@H]3C[C@@H](F)CN3C(=O)C3(C(F)(F)F)CC(F)(F)C3)C3CC3)C(=O)N[C@@H](CC(C)C)C(=O)N2C)cn1 [Example 44] | 6.6 µM | 6.57 | 7.70 | 0.02 µM | 0.04 µM | 7.52 |
| CC(C)C[C@@H]1NC(=O)[C@@H](N(C)C(=O)[C@@H](NC(=O)[C@@H]2C[C@@H](F)CN2C(=O)C2(C(F)(F)F)CC(F)(F)C2)C2CC2)CC=CCCCCN(C)C(=O)[C@H](Cc2cc(F)ccc2C2=CCC(O)CC2)N(C)C1=O (stereo partly drawn) [Example 47] | 12.9 µM | 6.10 | 7.70 | 0.03 µM | 0.13 µM | 7.40 |
| CC(C)C[C@@H]1NC(=O)[C@@H](N(C)C(=O)[C@@H](NC(=O)[C@@H]2C[C@@H](F)CN2C(=O)C2(C(F)(F)F)CCC2)C2CC2)CC=CCCCCN(C)C(=O)[C@H](Cc2cc(Cl)ccc2Cl)N(C)C1=O [Example 48] | 15.8 µM | 6.89 | 7.70 | 0.04 µM | 0.05 µM | 7.10 |
| CC(C)C[C@@H]1NC(=O)[C@@H](N(C)C(=O)[C@@H](NC(=O)[C@@H]2C[C@@H](F)CN2C(=O)C2(C(F)(F)F)CC(F)(F)C2)C2CC2)CCCCCCCN(C)C(=O)[C@H](Cc2cc(Cl)ccc2-c2cnn(C)c2)N(C)C1=O [Example 49] ({cBuCO(3,3-F2-1-CF3)}-[Pro(trans-4-F)][Gly(cPr)][NMehhhLys(Me)]L[X22]; lactam 3-C) | 11.5 µM | 6.46 | 7.70 | 0.01 µM | 0.01 µM | 7.70 |
| CC(C)C[C@@H]1NC(=O)[C@@H](N(C)C(=O)[C@@H](NC(=O)[C@@H]2C[C@@H](F)CN2C(=O)C2(C(F)(F)F)CC(F)(F)C2)C2CC2)CCCCCCCN(C)C(=O)[C@H](Cc2cc(Cl)ccc2C2=CCOCC2)N(C)C1=O [Example 51] ({cBuCO(3,3-F2-1-CF3)}-[Pro(trans-4-F)][Gly(cPr)][NMehhhLys(Me)]L[X104]; lactam 3-C) | 18.8 µM | 6.05 | 7.70 | 0.01 µM | 0.01 µM | 7.70 |
| CC(=O)N1CCC(c2ccc(Cl)cc2C[C@H]2C(=O)N(C)CCCCCCC[C@H](N(C)C(=O)[C@@H](NC(=O)[C@@H]3C[C@@H](F)CN3C(=O)C3(C(F)(F)F)CC(F)(F)C3)C3CC3)C(=O)N[C@@H](CC(C)C)C(=O)N2C)CC1 [Example 52] ({cBuCO(3,3-F2-1-CF3)}-[Pro(trans-4-F)][Gly(cPr)][NMehhhLys(Me)]L[X84]; lactam 3-C) | 13.1 µM | 5.95 | 7.70 | 0.01 µM | 0.01 µM | 7.40 |
| CCOC(=O)N1CC=C(c2ccc(Cl)cc2C[C@H]2C(=O)NCCCCC=CC[C@H](N(C)C(=O)[C@@H](NC(=O)[C@@H]3C[C@@H](F)CN3C(=O)C3(C(F)(F)F)CC(F)(F)C3)C3CC3)C(=O)N[C@@H](CC(C)C)C(=O)N2C)CC1 [Example 53, Ethyl 4-(4-chloro-2-(((3S,6S,9S)-9-((S)-2-cyclopropyl-2-((2S,4R)-1-(3,3-difluoro-1-(trifluoromethyl)cyclobutane-1-carbonyl)-4-fluoropyrrolidine-2-carboxamido)-N-methylacetamido)-6-isobutyl-4-methyl-2,5,8-trioxo-1,4,7-triazacyclohexadec-11-en-3-yl)methyl)phenyl)-3,6-dihydropyridine-1 (2H)-carboxylate] | 4.5 µM | 4.91 | 7.70 | 0.18 µM | 0.18 µM | 7.05 |
| CC(=O)NC1CC=C(c2ccc(Cl)cc2C[C@H]2C(=O)N(C)CCCCCCC[C@H](N(C)C(=O)[C@@H](NC(=O)[C@@H]3C[C@@H](F)CN3C(=O)C3(C(F)(F)F)CC(F)(F)C3)C3CC3)C(=O)N[C@@H](CC(C)C)C(=O)N2C)CC1 (stereo partly drawn) [Example 60] ({cBuCO(3,3-F2-1-CF3)}-[Pro(trans-4-F)][Gly(cPr)][NMehhhLys(Me)]L[X100]; lactam 3-C) | 5.72 µM | 6.13 | 7.70 | 0.01 µM | 0.01 µM | 7.70 |
| CC(C)C[C@@H]1NC(=O)[C@@H](N(C)C(=O)[C@@H](NC(=O)[C@@H]2C[C@@H](F)CN2C(=O)C2(C(F)(F)F)CC(F)(F)C2)C2CC2)CCCCCCCNC(=O)[C@H](Cc2cc(Cl)ccc2C(C)C)N(C)C1=O [Example 63] ({cBuCO(3,3-F2-1-CF3)}-[Pro(trans-4-F)][Gly(cPr)][NMe(hhhLys)]L[X88]; lactam 3-C) | 3.17 µM | 5.45 | 7.70 | 0.11 µM | 0.24 µM | 6.92 |
| CC(C)C[C@@H]1NC(=O)[C@@H](N(C)C(=O)[C@@H](NC(=O)[C@@H]2C[C@@H](F)CN2C(=O)C2(C(F)(F)F)CC(F)(F)C2)C2CC2)CCCCCCCN(C)C(=O)[C@H](Cc2cc(F)ccc2-c2cnn(C3CC3)c2)N(C)C1=O [Example 68] ({cBuCO(3,3-F2-1-CF3)}-[Pro(trans-4-F)][Gly(cPr)][NMehhhLys(Me)]L[X26]; lactam 3-C) | 12.8 µM | 6.92 | 7.70 | 0.01 µM | 0.01 µM | 7.70 |
| CC(C)C[C@@H]1NC(=O)[C@@H](N(C)C(=O)[C@@H](NC(=O)[C@@H]2C[C@@H](F)CN2C(=O)C2(C(F)(F)F)CCC2)C2CC2)CCCCCCCN(C)C(=O)[C@H](Cc2cc(F)ccc2-c2cnn(C)c2)N(C)C1=O [Example 69] ({Cyclobutanecarbonyl(1-CF3)}-[Pro(trans-4-F)][Gly(cPr)][NMehhhLys(Me)]L[X112]; lactam 3-C) | 17.6 µM | 6.96 | 7.70 | 0.01 µM | 0.01 µM | 7.70 |
| CC(C)C[C@@H]1NC(=O)[C@@H](N(C)C(=O)[C@@H](NC(=O)[C@@H]2C[C@@H](F)CN2C(=O)C2(C(F)(F)F)CCC2)C2CC2)CCCCCCCNC(=O)[C@H](Cc2cc(Cl)ccc2-c2cnn(C)c2)N(C)C1=O [Example 70] ({Cyclobutanecarbonyl(1-CF3)}-[Pro(trans-4-F)][Gly(cPr)][NMe(hhhLys)]L[X22]; lactam 3-C) | 10.1 µM | 6.54 | 7.70 | 0.01 µM | 0.01 µM | 7.70 |
| CC(C)C[C@@H]1NC(=O)[C@@H](N(C)C(=O)[C@@H](CC(=O)[C@@H]2C[C@@H](F)CN2C(=O)C2(C(F)(F)F)CC(F)(F)C2)C2CC2)CCCCCCN(C)C(=O)[C@H](Cc2cc(Cl)ccc2C2=CCOCC2)N(C)C1=O [Example 71] | 13.8 µM | 5.80 | 7.70 | 0.07 µM | 0.09 µM | 7.70 |
| CC(C)C[C@@H]1NC(=O)[C@@H](N(C)C(=O)[C@@H](NC(=O)[C@@H]2C[C@@H](F)CN2C(=O)C2(C(F)(F)F)CC(F)(F)C2)C2CC2)CCCCCCN(C)C(=O)[C@H](Cc2cc(Cl)ccc2-c2cnn(C)c2)N(C)C1=O [Example 72] | 14.9 µM | 5.98 | 7.70 | 0.04 µM | 0.06 µM | 7.52 |
| CC(C)C[C@@H]1NC(=O)[C@@H](N(C)C(=O)[C@@H](NC(=O)[C@@H]2C[C@@H](F)CN2C(=O)C2(C(F)(F)F)CC(F)(F)C2)C2CC2)CCCCCCN(C)C(=O)[C@H](Cc2cc(Cl)ccc2-c2cnn(C3CC3)c2)N(C)C1=O [Example 73] | 3.65 µM | 6.03 | 7.70 | 0.04 µM | 0.06 µM | 7.52 |
| CC(C)C[C@@H]1NC(=O)[C@@H](N(C)C(=O)[C@@H](NC(=O)[C@@H]2C[C@@H](F)CN2C(=O)C2(C(F)(F)F)CC(F)(F)C2)C2CC2)CC=CCCCCN(C)C(=O)[C@H](Cc2cc(Cl)ccc2-c2cnn(C3CC3)c2)N(C)C1=O [Example 78] | 4.52 µM | 6.19 | 7.70 | 0.03 µM | 0.04 µM | 7.40 |
| COCn1cc(-c2ccc(Cl)cc2C[C@H]2C(=O)N(C)CCCCC=CC[C@H](N(C)C(=O)[C@@H](NC(=O)[C@@H]3C[C@@H](F)CN3C(=O)C3(C(F)(F)F)CCC3)C3CC3)C(=O)N[C@@H](CC(C)C)C(=O)N2C)cn1 [Example 80] | 11.6 µM | 6.52 | 7.70 | 0.03 µM | 0.03 µM | 7.40 |
| CC(C)C[C@@H]1NC(=O)[C@@H](N(C)C(=O)[C@@H](NC(=O)[C@@H]2C[C@@H](F)CN2C(=O)C2(C(F)(F)F)CCC2)C2CC2)CC=CCCCCN(C)C(=O)[C@H](Cc2cc(Cl)ccc2-c2cnn(C3CC3)c2)N(C)C1=O [Example 81] | 4.3 µM | 6.52 | 7.70 | 0.04 µM | 0.05 µM | 7.40 |
| CC(C)C[C@@H]1NC(=O)[C@@H](N(C)C(=O)[C@@H](NC(=O)[C@@H]2C[C@@H](F)CN2C(=O)C2(C(F)(F)F)CC(F)(F)C2)C2CC2)CC=CCCCCN(C)C(=O)[C@H](Cc2cc(F)ccc2-c2cnn(C3CCC3)c2)N(C)C1=O [Example 88] | 7.64 µM | 6.70 | 7.70 | 0.03 µM | 0.03 µM | 7.30 |
